Experimental findings from ChEMBL document CHEMBL3286376, “Design, synthesis and biological evaluation of hydroxy- or methoxy-substituted 5-benzylidene(thio) barbiturates as novel tyrosinase inhibitors” (Bioorg Med Chem, 2014) are described below.

The source made the active and inactive calls. No cut-off for these calls is given here.

By IC50 is commonly meant the concentration that inhibits the measured activity by half. Low readings indicate greater potency, high ones weaker potency. What is called inhibition is the relative decrease from the control value, in per cent.

The target of the first assay is T1, Tyrosinase (Agaricus bisporus, UniProt O42713).
T1 sequence (O42713 whole entry): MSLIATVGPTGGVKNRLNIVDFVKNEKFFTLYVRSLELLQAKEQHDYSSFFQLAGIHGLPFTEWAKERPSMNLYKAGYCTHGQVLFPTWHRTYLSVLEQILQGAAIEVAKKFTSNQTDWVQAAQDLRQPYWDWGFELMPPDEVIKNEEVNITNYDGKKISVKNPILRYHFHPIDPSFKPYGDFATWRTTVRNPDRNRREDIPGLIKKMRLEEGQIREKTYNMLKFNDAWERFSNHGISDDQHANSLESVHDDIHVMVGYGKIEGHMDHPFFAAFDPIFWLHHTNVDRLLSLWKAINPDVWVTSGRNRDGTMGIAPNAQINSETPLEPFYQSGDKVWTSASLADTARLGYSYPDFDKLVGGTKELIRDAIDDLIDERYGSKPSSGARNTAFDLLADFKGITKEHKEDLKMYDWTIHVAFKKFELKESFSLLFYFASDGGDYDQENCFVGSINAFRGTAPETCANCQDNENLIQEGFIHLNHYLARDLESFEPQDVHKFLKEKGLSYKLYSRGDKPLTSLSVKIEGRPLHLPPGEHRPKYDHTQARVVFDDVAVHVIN
Description: Inhibition of mushroom tyrosinase diphenolase activity using L-DOPA as substrate assessed as formation of DOPAchrome preincubated for 10 mins followed by substrate addition measured for 1 min
The compound `O=C1NC(=O)C(=Cc2cc(O)c(O)c(O)c2)C(=O)N1` displayed an IC50 of 5.51 µM.
With `O=C1NC(=S)NC(=O)C1=Cc1ccc(O)c(O)c1`, the IC50 was 6.1 µM.
In the case of `O=C1NC(=S)NC(=O)C1=Cc1ccc(O)c(O)c1O`, the IC50 was 95.8 µM. This IC50 is about 16-fold higher than that of the compound before.
Same read-out and setting: in the case of `O=C1NC(=O)C(=Cc2ccc(O)cc2O)C(=O)N1` it was 17.2 µM; in that of `COc1ccc(C=C2C(=O)NC(=S)NC2=O)cc1`, 70.1 µM.
Consider `COc1ccc(C=C2C(=O)NC(=O)NC2=O)cc1`, for which the midpoint of inhibition, the IC50, lay at 100 µM. This IC50 and that of the compound before are within 1.5-fold of each other.
On the same count and under the same terms, under `COc1cc(C=C2C(=O)NC(=O)NC2=O)ccc1O` stands 5.5 µM.
Still for that read-out and setting: under `O=C1NC(=O)C(=Cc2ccc(O)c(O)c2)C(=O)N1` stands 1.52 µM.
On the same count and under the same terms, under `O=C1NC(=S)NC(=O)C1=Cc1cc(O)c(O)c(O)c1` stands 7.14 µM; under `COc1cc(C=C2C(=O)NC(=S)NC2=O)ccc1O`, 7.8 µM.

For the next assay, the target named is T2, Tyrosinase (Agaricus bisporus) (UniProt O42713).
T2 sequence (whole entry): T1 sequence (O42713 whole entry)
The experiment in a line: Irreversible inhibition of mushroom tyrosinase diphenolase activity assessed as oxidation of L-DOPA at 5 to 10 uM.
In the case of `O=C1NC(=S)NC(=O)C1=Cc1ccc(O)c(O)c1`, the inhibition result is “Active”.

The target of another assay is T2, Tyrosinase (Agaricus bisporus). The assay can be described thus: Inhibition of mushroom tyrosinase diphenolase activity using L-DOPA as substrate assessed as formation of DOPAchrome at 100 uM preincubated for 10 mins followed by substrate addition measured for 1 min relative to control.
`COc1cc(C=C2C(=O)NC(=O)NC2=O)cc(OC)c1OC`: the inhibition is less than 20%.
The same measure, in the same setting: in the case of `COc1cc(C=C2C(=O)NC(=S)NC2=O)cc(OC)c1OC` it was less than 20%; in that of `O=Cc1ccc(O)c(O)c1`, less than 20%; in that of `COc1ccc(C=C2C(=O)NC(=S)NC2=O)cc1O`, less than 20%.
Same read-out and setting: under `O=C1NC(=S)NC(=O)C1=Cc1ccccc1O` stands less than 20%.
The same measure, in the same setting: in the case of `O=C1NC(=S)NC(=O)C1=Cc1cccc(O)c1` it was less than 20%.
Regarding `O=C1CC(=O)NC(=S)N1`, the inhibition is less than 20%.
The same measure, in the same setting: under `O=C1NC(=O)C(=Cc2ccc(O)c(O)c2O)C(=O)N1` stands less than 20%; under `O=C1CC(=O)NC(=O)N1`, less than 20%; under `COc1ccc(C=C2C(=O)NC(=O)NC2=O)cc1O`, less than 20%.
The same measure, in the same setting: in the case of `O=C1NC(=O)C(=Cc2c(O)cc(O)cc2O)C(=O)N1` it was less than 20%; in that of `O=C1NC(=S)NC(=O)C1=Cc1ccc(O)cc1O`, less than 20%; in that of `O=C1NC(=O)C(=Cc2ccccc2O)C(=O)N1`, less than 20%.
Still for that read-out and setting: in the case of `O=C1NC(=S)NC(=O)C1=Cc1c(O)cc(O)cc1O` it was less than 20%.
`O=C1NC(=O)C(=Cc2cccc(O)c2)C(=O)N1`: the inhibition is less than 20%.

For another assay the target is unchanged. The experiment in a line: Irreversible inhibition of mushroom tyrosinase diphenolase activity assessed as oxidation of L-DOPA at 1 to 2 uM.
With `O=C1NC(=O)C(=Cc2ccc(O)c(O)c2)C(=O)N1`, the inhibition result is “Active”.
